The values below come from ChEMBL document CHEMBL5370660, “Design of a Supersoft Topical JAK Inhibitor, Which Is Effective in Human Skin but Rapidly Deactivated in Blood” (J Med Chem, 2023).

A value given as a limit tells only on which side of the number the result lay.

Series [1] concerns the target Tyrosine-protein kinase JAK2 (Homo sapiens, UniProt O60674). Briefly: Inhibition of GST-fused JAK2 (808 to 1132 residues)(unknown origin) using Carboxyfluorescein-Ahx-GGEEEEYFELVKKKK peptide as substrate incubated for 30 mins in presence of ATP by caliper microfluidic mobility shift assay.
Series [2] has as its target Tyrosine-protein kinase JAK1 (Homo sapiens, UniProt P23458). Briefly: Inhibition of GST-fused JAK1 (866 to 1154 residues)(unknown origin) using FITC-Ahr-KKSRGDYMTMQIG-NH2 peptide as substrate incubated for 30 mins in presence of ATP by caliper microfluidic mobility shift assay.
The target of series [3] is T1, JAK3/JAK1 (Homo sapiens, UniProt P23458+P52333). Kind of series: Inhibition of JAK1/3-mediated STAT5 phosphorylation in human whole blood incubated for 30 mins followed by IL-2 addition measured after 15 mins by flow cytometry. Type of series: tissue-based.
Series [4] has as its target JAK2/JAK1 (Homo sapiens, UniProt O60674+P23458). Kind of series: Inhibition of JAK1/2-mediated STAT1 phosphorylation in human M07E cells preincubated for 30 mins followed by IFN-alpha stimulation measured after 15 mins by flow cytometry. The series is classed as cell-based.
The nature of series [5]: Metabolic stability in human skin S9 fraction measured upto 120 mins by LC-MS analysis. Type of series: ADME, subcellular.
In series [6] the target is T1, JAK3/JAK1. Kind of series: Inhibition of JAK1/3-mediated STAT5 phosphorylation in human M07E cells preincubated for 30 mins followed by IL-15 stimulation measured after 15 mins by flow cytometry. The series is classed as cell-based.
Series [7] can be described thus: Stability in human whole blood assessed as half life at 1 uM incubated upto 8 hrs by LC-MS/MS analysis. Type of series: ADME, tissue-based.
Series [8] deals with T2, Tyrosine-protein kinase JAK3 (Homo sapiens, UniProt P52333).
T2 sequence (P52333 whole entry): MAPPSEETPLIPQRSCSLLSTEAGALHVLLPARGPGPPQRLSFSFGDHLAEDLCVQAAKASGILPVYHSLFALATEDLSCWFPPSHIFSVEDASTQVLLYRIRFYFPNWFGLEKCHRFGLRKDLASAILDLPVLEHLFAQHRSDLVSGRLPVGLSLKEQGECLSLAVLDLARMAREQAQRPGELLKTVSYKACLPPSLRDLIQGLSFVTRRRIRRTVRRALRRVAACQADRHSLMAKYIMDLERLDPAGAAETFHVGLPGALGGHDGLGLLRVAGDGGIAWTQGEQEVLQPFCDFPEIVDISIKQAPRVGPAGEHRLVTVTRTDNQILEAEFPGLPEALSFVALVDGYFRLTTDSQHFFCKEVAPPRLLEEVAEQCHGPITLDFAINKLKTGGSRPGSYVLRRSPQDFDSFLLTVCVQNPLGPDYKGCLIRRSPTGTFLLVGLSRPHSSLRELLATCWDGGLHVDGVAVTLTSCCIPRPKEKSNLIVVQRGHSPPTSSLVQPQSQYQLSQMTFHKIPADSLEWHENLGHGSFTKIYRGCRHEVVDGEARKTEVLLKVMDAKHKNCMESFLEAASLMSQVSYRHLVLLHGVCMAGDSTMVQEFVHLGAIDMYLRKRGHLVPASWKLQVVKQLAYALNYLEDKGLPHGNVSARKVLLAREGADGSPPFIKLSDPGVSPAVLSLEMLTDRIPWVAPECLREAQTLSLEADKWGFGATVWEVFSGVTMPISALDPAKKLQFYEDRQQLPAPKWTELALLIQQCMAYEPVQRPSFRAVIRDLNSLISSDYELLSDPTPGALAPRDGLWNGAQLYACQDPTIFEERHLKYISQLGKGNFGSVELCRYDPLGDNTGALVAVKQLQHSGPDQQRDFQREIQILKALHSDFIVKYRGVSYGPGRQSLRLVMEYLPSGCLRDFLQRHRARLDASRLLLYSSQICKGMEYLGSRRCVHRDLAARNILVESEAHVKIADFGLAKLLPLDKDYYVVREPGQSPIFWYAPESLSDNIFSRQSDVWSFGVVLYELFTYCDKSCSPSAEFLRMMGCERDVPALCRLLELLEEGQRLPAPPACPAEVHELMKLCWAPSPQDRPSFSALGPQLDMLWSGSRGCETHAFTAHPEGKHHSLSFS
Kind of series: Inhibition of GST-fused JAK3 (811 to 1124 residues)(unknown origin) using Carboxyfluorescein-Ahx-GGEEEEYFELVKKKK peptide as substrate incubated for 30 mins in presence of ATP by caliper microfluidic mobility shift assay.

For series [9], the target named is Non-receptor tyrosine-protein kinase TYK2 (Homo sapiens, UniProt P29597). Briefly: Inhibition of GST-fused TYK2 (888 to 1187 residues)(unknown origin) using FITC-Ahr-KKSRGDYMTMQIG-NH2 peptide as substrate incubated for 30 mins in presence of ATP by caliper microfluidic mobility shift assay.
The nature of series [10]: Lipophilicity, LogD of compound. The series is classed as physicochemical. The following applies: octanol/water.
Series [11] is described as follows: Permeability of compound. The series is classed as ADME. Particulars: not told; read-out: permeability.

T1 sequence (P23458 whole entry, one chain of several): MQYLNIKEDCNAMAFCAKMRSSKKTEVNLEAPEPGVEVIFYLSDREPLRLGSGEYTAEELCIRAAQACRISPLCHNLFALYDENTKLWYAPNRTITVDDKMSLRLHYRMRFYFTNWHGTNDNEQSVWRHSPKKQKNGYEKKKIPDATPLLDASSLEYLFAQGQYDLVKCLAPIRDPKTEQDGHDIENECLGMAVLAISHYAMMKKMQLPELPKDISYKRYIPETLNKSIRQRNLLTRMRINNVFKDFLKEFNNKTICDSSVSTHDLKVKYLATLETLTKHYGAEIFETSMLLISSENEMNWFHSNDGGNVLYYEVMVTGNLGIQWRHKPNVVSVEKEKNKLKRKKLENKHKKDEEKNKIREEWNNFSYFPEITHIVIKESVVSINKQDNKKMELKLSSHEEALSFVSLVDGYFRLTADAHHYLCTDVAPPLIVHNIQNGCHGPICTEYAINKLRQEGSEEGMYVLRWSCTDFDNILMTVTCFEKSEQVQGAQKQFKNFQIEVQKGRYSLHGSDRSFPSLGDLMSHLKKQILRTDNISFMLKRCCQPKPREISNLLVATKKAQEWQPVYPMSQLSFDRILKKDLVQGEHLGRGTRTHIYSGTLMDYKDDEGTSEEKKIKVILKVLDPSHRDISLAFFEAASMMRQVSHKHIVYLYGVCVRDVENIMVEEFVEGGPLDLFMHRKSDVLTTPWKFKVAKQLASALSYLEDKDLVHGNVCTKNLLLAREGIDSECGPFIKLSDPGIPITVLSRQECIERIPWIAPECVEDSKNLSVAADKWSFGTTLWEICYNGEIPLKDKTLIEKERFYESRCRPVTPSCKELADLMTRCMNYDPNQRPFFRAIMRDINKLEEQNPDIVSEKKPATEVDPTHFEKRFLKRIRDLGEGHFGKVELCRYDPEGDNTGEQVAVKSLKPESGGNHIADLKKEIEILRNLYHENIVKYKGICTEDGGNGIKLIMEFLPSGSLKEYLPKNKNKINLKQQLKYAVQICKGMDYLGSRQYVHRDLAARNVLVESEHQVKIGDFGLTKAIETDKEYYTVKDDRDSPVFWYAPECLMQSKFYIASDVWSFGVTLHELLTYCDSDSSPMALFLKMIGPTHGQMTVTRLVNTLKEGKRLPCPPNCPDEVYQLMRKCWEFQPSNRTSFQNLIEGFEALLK
Sequence of JAK2/JAK1 (P23458 whole entry): as the sequence (P23458 whole entry, one chain of several) above
Sequence of JAK2/JAK1 (O60674 whole entry): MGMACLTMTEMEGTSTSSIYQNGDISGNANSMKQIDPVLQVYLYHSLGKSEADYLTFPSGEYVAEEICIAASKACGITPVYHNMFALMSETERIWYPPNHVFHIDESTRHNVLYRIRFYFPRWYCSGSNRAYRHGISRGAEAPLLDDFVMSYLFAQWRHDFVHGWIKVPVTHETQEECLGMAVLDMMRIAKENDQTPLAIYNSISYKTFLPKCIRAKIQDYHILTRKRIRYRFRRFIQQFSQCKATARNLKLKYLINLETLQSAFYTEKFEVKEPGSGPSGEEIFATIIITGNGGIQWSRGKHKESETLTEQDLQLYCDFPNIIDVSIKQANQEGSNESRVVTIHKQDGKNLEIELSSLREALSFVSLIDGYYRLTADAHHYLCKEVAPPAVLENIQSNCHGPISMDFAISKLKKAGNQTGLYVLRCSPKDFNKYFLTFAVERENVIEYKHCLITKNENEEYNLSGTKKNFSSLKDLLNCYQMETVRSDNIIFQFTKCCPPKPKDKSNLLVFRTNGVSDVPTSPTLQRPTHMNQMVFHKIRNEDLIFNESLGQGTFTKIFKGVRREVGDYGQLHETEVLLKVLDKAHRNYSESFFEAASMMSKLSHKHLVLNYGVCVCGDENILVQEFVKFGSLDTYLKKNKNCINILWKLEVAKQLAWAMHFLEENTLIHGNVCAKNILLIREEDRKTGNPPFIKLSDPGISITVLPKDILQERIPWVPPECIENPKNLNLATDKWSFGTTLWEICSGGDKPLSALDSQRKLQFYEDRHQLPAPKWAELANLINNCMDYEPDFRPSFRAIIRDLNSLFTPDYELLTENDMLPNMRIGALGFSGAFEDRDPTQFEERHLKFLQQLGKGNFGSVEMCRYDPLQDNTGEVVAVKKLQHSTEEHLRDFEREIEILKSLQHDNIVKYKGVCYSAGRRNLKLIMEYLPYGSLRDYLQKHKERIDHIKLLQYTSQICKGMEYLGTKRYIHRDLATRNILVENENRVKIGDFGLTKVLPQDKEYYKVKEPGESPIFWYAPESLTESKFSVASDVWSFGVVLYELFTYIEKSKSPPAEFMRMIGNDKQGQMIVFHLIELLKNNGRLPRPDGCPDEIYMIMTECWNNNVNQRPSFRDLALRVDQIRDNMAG
Sequence of Tyrosine-protein kinase JAK1 (P23458 whole entry, the tested form may be a part): as the sequence (P23458 whole entry, one chain of several) above
Sequence of Tyrosine-protein kinase JAK2 (O60674 whole entry, the tested form may be a part): as the sequence (O60674 whole entry) above
Sequence of Non-receptor tyrosine-protein kinase TYK2 (P29597 whole entry, the tested form may be a part): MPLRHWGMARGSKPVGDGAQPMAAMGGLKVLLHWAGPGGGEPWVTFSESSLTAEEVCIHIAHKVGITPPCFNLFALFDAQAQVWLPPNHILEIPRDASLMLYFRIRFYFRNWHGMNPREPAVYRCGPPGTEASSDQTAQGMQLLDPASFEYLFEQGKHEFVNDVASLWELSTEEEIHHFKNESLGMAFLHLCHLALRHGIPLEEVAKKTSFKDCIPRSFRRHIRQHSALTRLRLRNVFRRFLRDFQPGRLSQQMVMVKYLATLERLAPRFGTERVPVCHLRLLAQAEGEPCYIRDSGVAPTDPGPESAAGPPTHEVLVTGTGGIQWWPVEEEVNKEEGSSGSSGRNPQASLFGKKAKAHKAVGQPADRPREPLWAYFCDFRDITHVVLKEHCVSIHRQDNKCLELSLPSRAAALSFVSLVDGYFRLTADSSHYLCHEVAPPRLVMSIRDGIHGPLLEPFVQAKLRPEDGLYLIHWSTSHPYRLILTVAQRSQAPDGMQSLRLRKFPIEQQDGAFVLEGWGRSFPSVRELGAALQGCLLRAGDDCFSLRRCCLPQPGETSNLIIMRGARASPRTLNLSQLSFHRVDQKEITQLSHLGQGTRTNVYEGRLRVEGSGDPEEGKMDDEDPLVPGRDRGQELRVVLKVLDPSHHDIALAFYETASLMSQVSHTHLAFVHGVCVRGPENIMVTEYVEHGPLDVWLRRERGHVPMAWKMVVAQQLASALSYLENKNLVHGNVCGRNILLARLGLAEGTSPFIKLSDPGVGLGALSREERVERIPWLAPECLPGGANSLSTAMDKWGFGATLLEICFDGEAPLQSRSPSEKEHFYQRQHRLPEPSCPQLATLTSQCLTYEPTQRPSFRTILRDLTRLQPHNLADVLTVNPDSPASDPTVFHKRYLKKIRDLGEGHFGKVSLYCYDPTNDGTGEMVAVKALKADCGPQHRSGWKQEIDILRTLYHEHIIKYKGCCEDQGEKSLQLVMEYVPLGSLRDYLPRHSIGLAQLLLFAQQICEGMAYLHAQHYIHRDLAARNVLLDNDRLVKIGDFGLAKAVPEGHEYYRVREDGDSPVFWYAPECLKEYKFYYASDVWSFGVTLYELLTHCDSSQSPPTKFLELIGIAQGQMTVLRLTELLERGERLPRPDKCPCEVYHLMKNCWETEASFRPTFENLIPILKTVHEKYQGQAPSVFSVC

For `CC(C)OC(=O)Cc1ccc(Nc2cc(Nc3ccccc3Cl)c(C(N)=O)cn2)nc1`, the half-maximal inhibitory concentration (IC50) in series [1] is 27 nM; in series [2], 29 nM; in series [3], 1200 nM; in series [4], 115 nM; in [6], 71 nM; in [8], 28 nM. For the same compound, the half-life in series [5] amounted to 67 min. In series [7], the half-life at 1 µM amounted to 65 min.

Take `COC[C@H](C)OC(=O)Cc1ccc(Nc2cc(Nc3ccccc3OC)c(C(N)=O)cn2)nc1`: the IC50 in [1] was 2 nM; in series [2], 1 nM; in series [3], more than 50000 nM; in series [4], 58 nM; in [6] it was 115 nM; in series [8], 1 nM. Besides, the half-life in series [5] turned out to be 12 min.

Regarding `CCOC(=O)CCc1ccc(Nc2cc(Nc3ccccc3Cl)c(C(N)=O)cn2)nc1`, the 50% inhibitory concentration (IC50) is 25 nM in series [1]; 27 nM in series [2]; 2500 nM in [3]; 185 nM in [4]; 37 nM in [9]; 171 nM in series [6]. Moreover, the half-maximal inhibitory concentration (IC50) in series [8] was found to be 25 nM. Further, in [5], the half-life came to 8 min.

Regarding `COc1ccccc1Nc1cc(Nc2ccc(CC(=O)O[C@@H]3CCOC3)cn2)ncc1C(N)=O`, the IC50 in series [1] was 4 nM; in series [2], 3 nM; in series [3], more than 50000 nM; in series [4], 48 nM; in series [9] it was 2 nM; in series [6], 67 nM. In addition, in series [8], the IC50 worked out at 3 nM. For the same compound, the half-life in series [5] stood at 8 min.

On to `COCCOC(=O)Cc1ccc(Nc2cc(Nc3ccccc3OC)c(C(N)=O)cn2)nc1`, for which the IC50 in series [1] is 6 nM; in [2], 6 nM; in series [3], more than 30000 nM; in series [4] it was 14 nM; in series [9], 2 nM; in series [6], 63 nM. In addition, the half-maximal inhibitory concentration (IC50) in series [8] was 4 nM. In series [5], the half-life is 5 min. The logD in series [10] is 2.9.

Turning to `CCOC(=O)c1ccc(Nc2cc(Nc3ccccc3Cl)c(C(N)=O)cn2)nc1`, the IC50 in series [1] was found to be 110 nM; in [2], 120 nM; in [3], 10300 nM; in [4], 288 nM; in series [6] it was 189 nM; in series [8] it was 170 nM.

On to `CCOC(=O)COc1ccc(Nc2cc(Nc3ccccc3Cl)c(C(N)=O)cn2)nc1`, for which the IC50 in [1] worked out at 76 nM; in series [2], 69 nM; in [3], 7530 nM; in [4] it was 185 nM; in series [9] it was 54 nM; in series [6], 141 nM. Further, the IC50 in [8] stood at 69 nM. Further, the half-life in series [5] worked out at 4 min.

Regarding `NC(=O)c1cnc(Nc2ccc(CC(=O)O)cn2)cc1Nc1ccccc1Cl`, the IC50 in series [1] is 19 nM; in series [2], 9 nM; in series [3], more than 50000 nM; in series [4], 3860 nM; in series [9] it was 10 nM; in [6], 2580 nM. In addition, the IC50 in [8] was determined as 10 nM. This compound had a half-life in [5] of less than 240 min. The logD in series [10] was found to be 0.4. Further, the Papp in [11] is 0.9 ×10⁻⁶ cm/s. The half-life at 1 µM in series [7] is more than 240 min.

With `NC(=O)c1cnc(Nc2cccc(O)n2)cc1Nc1ccccc1Cl`, the IC50 in series [4] was more than 10000 nM. Moreover, the half-life in series [5] was more than 200 min. For the same compound, the half-life at 1 µM in series [7] was more than 60 min.
